This assay deals with T1, Tyrosinase (Agaricus bisporus, UniProt O42713).
T1 sequence (O42713 whole entry): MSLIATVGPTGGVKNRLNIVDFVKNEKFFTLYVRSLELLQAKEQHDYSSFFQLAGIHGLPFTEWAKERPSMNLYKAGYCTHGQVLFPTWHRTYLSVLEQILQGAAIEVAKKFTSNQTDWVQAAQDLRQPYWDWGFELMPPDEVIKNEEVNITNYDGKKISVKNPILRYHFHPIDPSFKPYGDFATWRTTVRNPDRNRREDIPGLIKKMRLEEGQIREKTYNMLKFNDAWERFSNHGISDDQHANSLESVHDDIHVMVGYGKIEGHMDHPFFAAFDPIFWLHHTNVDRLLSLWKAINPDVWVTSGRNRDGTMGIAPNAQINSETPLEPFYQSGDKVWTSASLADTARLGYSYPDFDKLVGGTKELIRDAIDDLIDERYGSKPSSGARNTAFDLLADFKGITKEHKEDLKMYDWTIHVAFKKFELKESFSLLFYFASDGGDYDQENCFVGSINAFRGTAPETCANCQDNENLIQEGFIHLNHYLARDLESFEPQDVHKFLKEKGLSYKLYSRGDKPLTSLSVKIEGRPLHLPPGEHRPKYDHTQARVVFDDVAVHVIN
Description: Inhibition of mushroom tyrosinase activity after 10 mins

The compound `CC1(C)CC(=O)C=C(CO)[C@H]1CO` [JASMINODIOL] showed an IC50 of 2200 µM.

In general, IC50 refers to the concentration needed to halve the response being measured. High values mean lower potency, low ones higher potency.
